Test system: latent HIV-1 in GALT cultures from HIV-positive donors on suppressive ART
Test: Example 5: latency reversion in gut-associated lymphoid tissue (GALT) cultures, ddPCR
Type: cell-based
Experimental: PBMCs and CD4^+ T cells from HIV-positive donors were cultured and treated in the presence of 5 μM saquinavir. For gut-associated lymphoid tissue (GALT) cells, to remove the epithelium and epithelial cells, 30 tissue biopsy tissue pieces were incubated in pre-warmed buffer containing 10 mM DTT, 5 mM EDTA, 10 mM HEPES and 5% FBS for 20 minutes at 37° C. under continuous rotation, vortexed and the supernatant aspirated. Tissue pieces were then incubated for a second time in the same pre-warmed buffer for a further 20 minutes at 37° C. under continuous rotation. The sample was again vortexed, and then rinsed for 20 minutes at 37° C. under continuous rotation with RMPI, 10 mM HEPES and 5% FBS. To then isolate lymphocytes from the lamina propria, a second, pre-warmed buffer containing RPMI, 10 mM HEPES, 7.5 µg/ml DNAse and 5% FBS was applied to the tissue pieces, and these were again incubated for 20 minutes at 37° C. under continuous rotation. […]
5 million resting CD4^+ T lymphocytes were plated and either left unstimulated (media alone plus DMSO), stimulated with anti-CD3/CD28 coated or incubated with LRAs for 48 hours. […] Subsequently, ddPCR was applied to quantify pre-amplified cDNA. […] Finally, samples were amplified on a BioRad C1000 Thermocycler and analyzed using a BioRad QX100 ddPCR Reader. […]

**Q.** What does the source list for O=c1sn(-c2cccc3ccccc23)c(=O)n1Cc1ccccc1 [Tideglusib, 4-benzyl-2-(naphthalen-1-yl)-1,2,4-thiadiazolidine-3,5-dione]?
**A.** virus-associated mRNA in culture supernatant, median value (1 μM, 24 hours, relative to untreated control): 20.69 fold; virus release vs untreated control (GALT cultures): over 20 fold

From patent publication US11590110B2, “Compositions and methods for reactivating latent immunodeficiency virus using a GSK-3 inhibitor” (priority 2017, dated 2023)
